Results: patent US20070021405A1, “ARYL- AND HETEROARYLPIPERIDINECARBOXYLATE-DERIVATIVES METHODS FOR THEIR PREPARATION AND USE THEREOF AS FATTY ACID AMIDO HYDROLASE ENZYME INHIBITORS” (SANOFI-AVENTIS, priority 2004, published 2007)
pIC50: −log10 of the molar value.

Test system: not given
Test: not given
Details: not given

Row | Structure (SMILES) | melting point
1 | CNC(=O)COC(=O)N1CCC(n2cnc(-c3ccccc3)c2)CC1 [Compound No. 14, 2-(Methylamino)-2-oxoethyl 4-(4-phenyl-1H-imidazol-1-yl)piperidine-1-carboxylate] | 192 to 194 °C
2 | CNC(=O)COC(=O)N1CCC(O)(c2ccc(Br)cc2)CC1 [Compound No. 32, 2-(Methylamino)-2-oxoethyl 4-(4-bromophenyl)-4-hydroxypiperidine-1-carboxylate] | 57 to 60 °C
3 | CNC(=O)COC(=O)N1CCC(O)(c2ccc(-c3ccc(Cl)c(Cl)c3)cc2)CC1 [Compound No. 40, 2-(Methylamino)-2-oxoethyl 4-(3′,4′-dichlorobiphenyl-4-yl)-4-hydroxypiperidine-1-carboxylate] | 156 to 158 °C
4 | CNC(=O)COC(=O)N1CCC(Cc2ccc3ccccc3c2)CC1 [Compound No. 43, 2-(Methylamino)-2-oxoethyl 4-(naphth-2-ylmethyl)piperidine-1-carboxylate] | 150 to 152 °C
5 | CNC(=O)COC(=O)N1CCC(CCc2nccc3ccccc23)CC1 [Compound No. 74, 2-(Methylamino)-2-oxoethyl 4-(2-(isoquinolin-1-yl)ethyl)-1-piperidinecarboxylate] | 126 to 128 °C
6 | CNC(=O)COC(=O)N1CCC(CCCc2ccc(Cl)cc2)CC1 [Compound No. 83, 2-(Methylamino)-2-oxoethyl 4-[3-(4-chlorophenyl)propyl]piperidine-1-carboxylate] | 118 to 120 °C
7 | CNC(=O)COC(=O)N1CCC(CC#Cc2ccc(Cl)cc2)CC1 [Compound No. 107, 2-(Methylamino)-2-oxoethyl 4-[3-(4-chlorophenyl)prop-2-yn-1-yl]piperidine-1-carboxylate] | 101 to 103 °C
8 | NC(=O)COC(=O)N1CCC(Cn2ccc3ccccc32)CC1 [compound 47, 2-amino-2-oxoethyl 4-(1H-indol-1-ylmethyl)piperidine-1-carboxylate] | 158 to 159 °C

Molecular target: T1, enzyme FAAH (Fatty Acid Amido Hydrolase) (Mus musculus, UniProt O08914)
T1 construct: The membrane homogenates are prepared at the time of use by homogenization of the tissues; from tissue; host or cells: mouse brain (minus the cerebellum), membrane homogenate
T1 sequence (O08914 1-579): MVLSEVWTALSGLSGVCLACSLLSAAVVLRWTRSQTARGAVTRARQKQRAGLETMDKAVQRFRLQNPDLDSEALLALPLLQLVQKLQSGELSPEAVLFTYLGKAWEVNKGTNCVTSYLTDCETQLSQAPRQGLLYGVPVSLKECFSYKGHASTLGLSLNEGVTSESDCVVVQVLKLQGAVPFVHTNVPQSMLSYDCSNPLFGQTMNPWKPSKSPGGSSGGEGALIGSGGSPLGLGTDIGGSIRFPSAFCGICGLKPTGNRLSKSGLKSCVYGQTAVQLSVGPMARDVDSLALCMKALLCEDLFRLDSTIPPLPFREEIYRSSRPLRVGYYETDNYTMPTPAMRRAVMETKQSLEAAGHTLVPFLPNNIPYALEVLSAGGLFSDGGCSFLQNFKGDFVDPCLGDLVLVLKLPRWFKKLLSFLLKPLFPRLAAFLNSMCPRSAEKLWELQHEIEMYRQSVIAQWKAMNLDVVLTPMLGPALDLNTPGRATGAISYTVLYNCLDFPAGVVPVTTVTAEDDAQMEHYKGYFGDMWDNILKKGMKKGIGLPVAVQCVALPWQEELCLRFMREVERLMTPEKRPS
Test: radioenzymatic test of FAAH inhibition: hydrolysis of ((1-3H)ethanolamine)-anandamide by mouse brain membrane homogenates
Type: biochemical
Details: mouse brain membrane homogenate, 10 μM anandamide, 15 minutes at 25° C.; read-out: IC50 (concentration which inhibits the control enzymatic activity of FAAH by 50%)
Description: The compounds of the invention have formed the subject of pharmacological trials which make it possible to determine their inhibitory effect on the enzyme FAAH (Fatty Acid Amido Hydrolase).
Thus, mouse brains (minus the cerebellum) are removed and stored at −80° C. The membrane homogenates are prepared at the time of use by homogenization of the tissues with a Polytron in a 10 mM Tris-HCl buffer (pH 8.0) comprising 150 mM NaCl and 1 mM EDTA. The enzymatic reaction is subsequently carried out in 70 μl of buffer comprising bovine serum albumin free from fatty acids (1 mg/ml). The test compounds, at various concentrations, the ((1-^3H)ethanolamine)-anandamide (specific activity of 15-20 Ci/mmol), diluted to 10 μM with non-radiolabelled anandamide, and the membrane preparation (400 μg of frozen tissue per assay) are successively added. After 15 minutes at 25° C., the enzymatic reaction is halted by addition of 140 μl of chloroform/methanol (2:1). The mixture is stirred for 10 minutes and is then centrifuged at 3500 g for 15 minutes. An aliquot (30 μl) of the aqueous phase comprising the (1-^3H)ethanolamine is counted by liquid scintillation.

Row | Structure (SMILES) | pIC50
9 | CNC(=O)COC(=O)N1CCC(O)(c2ccc(-c3ccc(Cl)c(Cl)c3)cc2)CC1 [Compound No. 40, 2-(Methylamino)-2-oxoethyl 4-(3′,4′-dichlorobiphenyl-4-yl)-4-hydroxypiperidine-1-carboxylate] | 7.01
10 | CCOc1ccc(-c2ccc(C3(O)CCN(C(=O)OCC(=O)NC)CC3)cc2)cc1 [compound 39, 2-(methylamino)-2-oxoethyl 4-(4′-ethoxybiphenyl-4-yl)-4-hydroxypiperidine-1-carboxylate] | 7.02

Test system: male OF1 mice
Test: test for analgesia: abdominal tractions induced by PBQ (phenylbenzoquinone) i.p.
Type: in vivo, mouse
Details: 3 mg/kg p.o., administered 60 minutes before PBQ
Description: The in vivo activity of the compounds of the invention was evaluated in a test for analgesia.
Thus, the intraperitoneal (i.p.) administration of PBQ (phenylbenzoquinone, 2 mg/kg in a 0.9% sodium chloride solution comprising 5% of ethanol) to male OF1 mice weighing 25 to 30 g causes abdominal tractions, on average 30 twisting or contracting motions during the period from 5 to 15 minutes after injection. The test compounds are administered, orally (p.o.) or intraperitoneally (i.p.) in suspension in 0.5% Tween 80, 60 minutes or 120 minutes before the administration of PBQ. Under these conditions, the most powerful compounds of the invention reduce by 35 to 70% the number of tractions induced by the PBQ, within a range of doses of between 1 and 30 mg/kg.

Row | Structure (SMILES) | reduction of the number of tractions induced by the PBQ
11 | CNC(=O)COC(=O)N1CCC(CCc2ccc(Cl)cc2)CC1 [compound 57, 2-(methylamino)-2-oxoethyl 4-[2-(4-chloro-phenyl)ethyl]piperidine-1-carboxylate] | 37%

Same assay, conditions: 3 mg/kg p.o., administered 120 minutes before PBQ

Row | Structure (SMILES) | reduction of the number of tractions induced by the PBQ
12 | CNC(=O)COC(=O)N1CCC(CCc2ccc(Cl)cc2)CC1 [compound 57, 2-(methylamino)-2-oxoethyl 4-[2-(4-chloro-phenyl)ethyl]piperidine-1-carboxylate] | 74%
